Data from ChEMBL document CHEMBL1201862, “PubChem BioAssay data set” (2004).
The source made the active and inactive calls.

Experiments:
[1] = target: T1, RNA-binding protein pos-1 (Caenorhabditis elegans, UniProt G5EF15); experiment: disruptors of C. elegans POS-1 RNA interaction – biochemical, fluorescence polarization, dose response (AID 1964);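 further: purified POS-1 fused to maltose binding protein made in E. coli; potency of compounds blocking POS-1 binding to fluorescent RNA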
T1 sequence (G5EF15 whole entry): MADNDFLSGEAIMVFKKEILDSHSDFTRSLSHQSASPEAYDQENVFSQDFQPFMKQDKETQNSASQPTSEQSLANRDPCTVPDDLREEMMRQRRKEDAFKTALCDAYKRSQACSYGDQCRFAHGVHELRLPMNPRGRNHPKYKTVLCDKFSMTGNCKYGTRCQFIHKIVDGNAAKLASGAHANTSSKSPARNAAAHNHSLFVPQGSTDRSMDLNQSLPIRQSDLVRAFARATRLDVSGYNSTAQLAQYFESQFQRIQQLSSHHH

[2] = target: T2, Zinc finger protein mex-5 (Caenorhabditis elegans, UniProt Q9XUB2); experiment: potency of MEX-5 RNA-binding blockers – biochemical, C. elegans, fluorescence polarization, dose response (AID 1960)
T2 sequence (Q9XUB2 whole entry): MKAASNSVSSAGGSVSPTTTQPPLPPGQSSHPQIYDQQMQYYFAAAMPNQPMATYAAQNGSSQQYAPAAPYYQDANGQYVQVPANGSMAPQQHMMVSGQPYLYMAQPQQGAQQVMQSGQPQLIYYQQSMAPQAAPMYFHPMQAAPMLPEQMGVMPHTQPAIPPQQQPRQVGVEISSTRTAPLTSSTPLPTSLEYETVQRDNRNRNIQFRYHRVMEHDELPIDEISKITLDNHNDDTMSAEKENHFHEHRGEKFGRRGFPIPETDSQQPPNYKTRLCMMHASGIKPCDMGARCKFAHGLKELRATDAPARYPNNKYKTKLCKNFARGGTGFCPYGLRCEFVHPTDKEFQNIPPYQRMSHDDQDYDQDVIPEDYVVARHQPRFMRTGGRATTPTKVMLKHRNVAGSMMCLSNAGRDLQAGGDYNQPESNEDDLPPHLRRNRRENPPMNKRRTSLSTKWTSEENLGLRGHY

[3] = Luminescence Cell-Based Dose Response HTS to Identify Inhibitors of 5'UTR Stem-Loop Driven Prion Protein mRNA Translation in H4 Neuroglioblastoma Cells. [Related pubchem assays: 1827 (Project Summary), 1813 (Primary HTS)]; type: functional
[4] = alpha-synuclein stem-loop luciferase translation blockers – H4 neuroglioma cells, luminescence, confirmation (AID 1988); type: functional, cell-based
[5] = luciferase reporter signal suppression in cells – H4 neuroglioma cells, luminescence, dose response (AID 1990); type: functional, cell-based
[6] = Luminescence Cell-Based Dose Confirmation HTS to Identify Inhibitors of Platelet Dense Granule Release. [Related pubchem assays: 1663 (Primary HTS), 1678 (Summary of Project)]; type: functional
[7] = target: Luciferin 4-monooxygenase (Photinus pyralis, UniProt P08659); experiment: inhibition of purified Photinus pyralis luciferase – biochemical, luminescence, dose response (AID 1891)
Chain of Luciferin 4-monooxygenase (P08659 whole entry): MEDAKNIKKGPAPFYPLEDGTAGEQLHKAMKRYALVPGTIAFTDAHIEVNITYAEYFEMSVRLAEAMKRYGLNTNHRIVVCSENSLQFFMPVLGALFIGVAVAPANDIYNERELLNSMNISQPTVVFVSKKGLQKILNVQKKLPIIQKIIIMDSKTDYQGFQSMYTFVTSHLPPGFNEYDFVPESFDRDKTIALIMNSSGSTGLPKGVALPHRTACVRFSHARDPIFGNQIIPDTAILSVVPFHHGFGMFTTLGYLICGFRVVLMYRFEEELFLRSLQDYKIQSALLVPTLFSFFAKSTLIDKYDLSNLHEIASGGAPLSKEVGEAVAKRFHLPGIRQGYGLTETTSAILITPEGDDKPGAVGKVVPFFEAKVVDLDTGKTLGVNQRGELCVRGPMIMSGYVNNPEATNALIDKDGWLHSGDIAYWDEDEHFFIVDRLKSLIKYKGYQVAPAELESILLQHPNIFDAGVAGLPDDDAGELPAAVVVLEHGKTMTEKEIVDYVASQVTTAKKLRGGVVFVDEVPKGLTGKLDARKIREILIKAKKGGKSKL

[8] = target: Cytochrome P450 2C19 (Homo sapiens, UniProt P33261); experiment: Cytochrome panel assay with activity outcomes. Panel member name: p450-cyp2c19 Compounds with AC50 equal or less than 10 uM are considered active; type: functional; conditions: read-out: AC50
Chain of Cytochrome P450 2C19 (P33261 whole entry): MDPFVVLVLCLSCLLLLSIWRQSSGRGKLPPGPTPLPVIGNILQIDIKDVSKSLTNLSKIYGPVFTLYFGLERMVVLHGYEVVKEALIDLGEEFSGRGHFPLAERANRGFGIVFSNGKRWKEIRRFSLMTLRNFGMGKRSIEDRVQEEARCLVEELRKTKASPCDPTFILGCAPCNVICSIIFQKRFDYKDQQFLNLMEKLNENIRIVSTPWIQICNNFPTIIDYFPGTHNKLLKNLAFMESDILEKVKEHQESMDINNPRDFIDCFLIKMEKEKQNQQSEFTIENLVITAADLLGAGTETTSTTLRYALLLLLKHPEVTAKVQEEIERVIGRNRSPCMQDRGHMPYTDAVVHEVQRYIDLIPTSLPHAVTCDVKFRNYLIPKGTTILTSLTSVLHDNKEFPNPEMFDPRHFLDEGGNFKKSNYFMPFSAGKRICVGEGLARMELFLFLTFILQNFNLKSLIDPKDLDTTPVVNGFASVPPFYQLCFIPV

[9] = target: Cytochrome P450 2C9 (Homo sapiens, UniProt P11712)
Chain of Cytochrome P450 2C9 (P11712 whole entry): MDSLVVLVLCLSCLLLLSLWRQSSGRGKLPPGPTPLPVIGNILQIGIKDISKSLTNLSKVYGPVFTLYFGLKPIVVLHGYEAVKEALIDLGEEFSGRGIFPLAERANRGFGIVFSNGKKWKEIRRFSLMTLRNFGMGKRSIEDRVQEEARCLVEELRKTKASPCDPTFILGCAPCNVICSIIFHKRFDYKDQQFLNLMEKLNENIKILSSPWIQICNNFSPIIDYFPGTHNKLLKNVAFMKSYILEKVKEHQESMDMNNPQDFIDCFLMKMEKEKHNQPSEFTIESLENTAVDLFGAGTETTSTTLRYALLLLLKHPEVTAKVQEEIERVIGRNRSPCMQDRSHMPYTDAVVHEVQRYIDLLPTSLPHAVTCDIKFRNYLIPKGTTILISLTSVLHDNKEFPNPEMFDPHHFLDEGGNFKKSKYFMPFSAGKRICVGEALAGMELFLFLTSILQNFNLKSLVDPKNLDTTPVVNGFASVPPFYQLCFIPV

[10] = target: Cytochrome P450 2D6 (Homo sapiens, UniProt P10635);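 further: CYP2D6 member of a cytochrome P450 panel assay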
Chain of Cytochrome P450 2D6 (P10635 whole entry): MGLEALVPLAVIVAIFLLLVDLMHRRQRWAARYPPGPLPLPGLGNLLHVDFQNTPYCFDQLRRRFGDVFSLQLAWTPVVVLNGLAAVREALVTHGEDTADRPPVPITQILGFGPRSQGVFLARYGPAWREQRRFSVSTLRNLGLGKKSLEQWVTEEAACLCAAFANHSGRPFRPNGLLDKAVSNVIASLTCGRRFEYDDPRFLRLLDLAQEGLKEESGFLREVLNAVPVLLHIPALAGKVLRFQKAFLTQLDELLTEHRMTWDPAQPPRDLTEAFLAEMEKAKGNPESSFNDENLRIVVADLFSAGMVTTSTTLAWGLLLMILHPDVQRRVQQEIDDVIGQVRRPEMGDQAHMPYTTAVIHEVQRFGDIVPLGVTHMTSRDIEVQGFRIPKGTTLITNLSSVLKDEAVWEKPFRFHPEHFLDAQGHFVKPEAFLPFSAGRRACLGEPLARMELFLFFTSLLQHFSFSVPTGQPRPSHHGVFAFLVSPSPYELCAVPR

[11] = tested on: INS1; experiment: INS-1E survival protection against cytokine death – cell-based, luminescence, retest, dose response (AID 449756); type: functional; conditions: Rattus norvegicus;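 further: cell death triggered by IL-1 beta plus TNF-alpha plus IFN-gamma mixture; protective hits raise ATP signal compared with cytokine alone wells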
[12] = target: T3, Cytochrome P450 1A2 (Homo sapiens, UniProt P05177);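 further: PubChem cytochrome P450 panel assay, CYP1A2 panel member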
T3 sequence (P05177 whole entry): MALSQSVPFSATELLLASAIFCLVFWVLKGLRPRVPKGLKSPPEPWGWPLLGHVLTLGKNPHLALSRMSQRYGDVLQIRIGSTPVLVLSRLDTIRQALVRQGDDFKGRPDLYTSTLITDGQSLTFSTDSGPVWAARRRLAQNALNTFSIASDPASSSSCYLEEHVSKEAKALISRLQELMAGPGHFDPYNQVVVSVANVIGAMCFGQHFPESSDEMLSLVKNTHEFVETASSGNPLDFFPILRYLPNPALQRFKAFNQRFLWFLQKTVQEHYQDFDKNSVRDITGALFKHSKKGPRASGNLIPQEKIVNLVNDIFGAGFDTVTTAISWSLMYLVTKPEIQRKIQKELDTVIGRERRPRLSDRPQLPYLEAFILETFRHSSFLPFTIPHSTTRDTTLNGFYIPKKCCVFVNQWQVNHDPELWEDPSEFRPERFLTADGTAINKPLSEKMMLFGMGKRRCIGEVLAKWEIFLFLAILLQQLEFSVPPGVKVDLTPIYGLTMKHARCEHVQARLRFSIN

[13] = target: T4, Streptokinase A (Streptococcus pyogenes serotype M1, UniProt P10520); experiment: viability-normalized secreted streptokinase activity reduction – plasminogen activation absorbance, OD405, dose response (AID 1914); type: functional, Streptococcus pyogenes M1 GAS;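 further: secreted streptokinase activity via plasminogen activation per viability signal from cell pellet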
T4 sequence (P10520 whole entry): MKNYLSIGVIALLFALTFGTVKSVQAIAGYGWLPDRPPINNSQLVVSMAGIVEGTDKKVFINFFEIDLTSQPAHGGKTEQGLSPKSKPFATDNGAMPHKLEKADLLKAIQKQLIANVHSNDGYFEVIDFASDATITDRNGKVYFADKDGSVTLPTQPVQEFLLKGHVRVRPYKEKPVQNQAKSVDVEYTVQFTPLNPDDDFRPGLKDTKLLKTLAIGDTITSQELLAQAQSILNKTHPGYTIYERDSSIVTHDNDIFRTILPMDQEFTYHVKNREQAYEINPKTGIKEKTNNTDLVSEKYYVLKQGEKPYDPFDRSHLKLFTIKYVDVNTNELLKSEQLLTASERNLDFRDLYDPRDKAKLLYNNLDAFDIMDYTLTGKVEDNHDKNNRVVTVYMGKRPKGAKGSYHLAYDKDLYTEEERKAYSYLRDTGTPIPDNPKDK

[14] = tested on: Streptococcus; experiment: GAS UMAA2166 growth inhibition – luminescence, BacTiterGlo, counter-screen for streptokinase expression inhibitor project, dose response (AID 1915); type: functional, organism-based;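 further: potency for reduction of bacterial viability or growth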
[15] = tested on: Streptococcus sp. 'group A'; experiment: Streptococcus pyogenes SK(-)GAS viability under kanamycin – luminescence, BacTiterGlo, confirmation, counter-screen for streptokinase expression inhibitor project, dose response (AID 1900); type: functional, organism-based

For CCCCCN1C=CC=C/C1=C\C=C(C#N)C#N, the EC50 [1] was 30.3 µM (inconclusive) and the EC50 [2] was > 300 µM (not active).

In the case of Cc1ccc(C(=O)N/N=C/c2ccc(-c3cccc(C(F)(F)F)c3)o2)cn1, the EC50 [3] is reported as > 120 µM (not active), the EC50 [4] is reported as 11.9 µM (active) and the EC50 [5] is reported as > 120 µM (not active).

With O=C(CN1C(=O)c2cccc3cccc1c23)N1CCN(c2ccc(F)cc2)CC1 the EC50 [6] was > 112 µM (not active) and the EC50 [7] was > 112 µM (not active).

For CN(C)CCCN/C=C1\C(=O)NC(=O)N(CCc2ccc(F)cc2)C1=O, the EC50 [1] was > 300 µM (not active) and the EC50 [2] was > 300 µM (not active).

For O=C1CC(=O)C(n2cncn2)C(c2cccc(Cl)c2)C1 (stereo not drawn), the AC50 [8] was 3.98 µM (inconclusive) and the AC50 [9] was 25.1 µM (inconclusive).

For COc1ccc2[nH]cc(CCNc3nc(-c4ccc(C(=O)N(C)C)cc4)nc4ccccc34)c2c1, the AC50 [10] was 20 µM (inconclusive) and the AC50 [9] was 1 µM (inconclusive).

For COc1cc(OC)c(C2C(C#N)=C(N)OC3=C2C(=O)CC(C)(C)C3)cc1OC (stereo not drawn), the EC50 [1] was > 300 µM (not active) and the EC50 [2] was > 300 µM (not active).

In the case of O=c1c(CCc2ccccc2)nc2cnc(Nc3ccccc3)nc2n1C[C@H]1CCCO1, the AC50 [9] is reported as 20 µM (inconclusive).

For O=c1oc(Nc2ccc(F)cc2)nc2ccccc12, the EC50 [6] was 4.03 µM (active) and the EC50 [7] was 8.06 µM (active).

With O=C(NCCCN1CCOCC1)C(=O)N/N=C/c1c2ccccc2cc2ccccc12 the EC50 [3] was 13.9 µM (active), the EC50 [4] was 9.11 µM (active) and the EC50 [5] was 12.2 µM (active).

With CCn1c(=O)c([N+](=O)[O-])c(NCCc2ccc(OC)c(OC)c2)c2ccccc21 the EC50 [6] was > 112 µM (not active) and the EC50 [7] was > 112 µM (not active).

With CCOC(=O)C1=C(CNCc2ccc(F)cc2)NC(=O)NC1c1cccc([N+](=O)[O-])c1 (stereo not drawn) the EC50 [6] was > 112 µM (not active) and the EC50 [7] was > 112 µM (not active).

With COc1cccc(-c2cncnc2NCCc2c[nH]c3ccc(OC)cc23)c1 the AC50 [9] was 0.1 µM (inconclusive).

For Cc1c(C(=O)N2CCCCC2)c(S(=O)(=O)N(C)Cc2ccccc2)c(C)n1C, the EC50 [6] was > 112 µM (not active) and the EC50 [7] was > 112 µM (not active).

With O=C(Nc1cccc(-c2nc3ccccc3o2)c1)c1ccc(N2C(=O)C3C4C=CC(C4)C3C2=O)cc1 (stereo not drawn) the EC50 [3] was > 120 µM (not active), the EC50 [4] was 9.98 µM (active) and the EC50 [5] was 10.5 µM (active).

In the case of COc1ccc(NC(=O)c2sc3nc(-c4cccnc4)ccc3c2N)cc1, the EC50 [1] is reported as 40.6 µM (inconclusive) and the EC50 [2] is reported as 4.79 µM (active).

With C=CCNc1nc(N)c([N+](=O)[O-])c(NC2CCCCC2)n1 the EC50 [3] was 0.21 µM (active), the EC50 [4] was > 120 µM (not active) and the EC50 [5] was 28.9 µM (active).

For CCCCc1ccc(Nc2nc(N3CCOCC3)nc(N3CCOCC3)n2)cc1, the EC50 [6] was > 112 µM (not active) and the EC50 [7] was > 112 µM (not active).

For CC1CN(c2nc3ccccc3nc2C(C#N)C(=O)NC2CCCCC2)CC(C)O1 (stereo not drawn), the EC50 [1] was > 300 µM (not active) and the EC50 [2] was > 300 µM (inconclusive).

For COc1cccc(C(=O)NCC2CCN(c3ccc(S(=O)(=O)N4CCOCC4)cc3)CC2)c1, the EC50 [1] was > 300 µM (not active) and the EC50 [2] was > 300 µM (not active).

In the case of COCCNC(=O)CSc1ncnc2sccc12, the AC50 [9] is reported as 28.2 µM (inconclusive).

For COC(=O)C1CSc2[nH]c(=O)sc2C1c1ccccc1 (stereo not drawn), the EC50 [1] was 7.13 µM (active) and the EC50 [2] was 7.46 µM (active).

For Cc1ccc(C(=O)C2=C(O)C(=O)N(Cc3ccco3)C2c2ccc(N(C)C)cc2)o1 (stereo not drawn), the EC50 [1] was > 300 µM (not active) and the EC50 [2] was > 300 µM (not active).

With O=c1cnc2cnc(Oc3cccc(Cl)c3)nc2n1C[C@H]1CCCO1 the AC50 [8] was 39.8 µM (inconclusive) and the AC50 [9] was 15.8 µM (inconclusive).

In the case of CC(Sc1nnc(C(C)N(C)C)n1-c1ccc(Cl)cc1)C(=O)Nc1ccc2c(c1)OCO2 (stereo not drawn), the AC50 [9] is reported as 15.8 µM (inconclusive).

In the case of COC(=O)c1cc(NC(=O)c2c(Cl)nc3sccn23)cc(C(=O)OC)c1, the EC50 [3] is reported as 10.6 µM (active), the EC50 [4] is reported as 9.13 µM (active) and the EC50 [5] is reported as 12.3 µM (active).

With Cc1n[nH]c(NNC(=O)c2ccccc2)c1[N+](=O)[O-] the EC50 [1] was 15.2 µM (active) and the EC50 [2] was 4.96 µM (active).

With C/C=C(/C)C(=O)Nc1cccc(C2=NOC3(C2)C[C@H](C(N)=O)N(C(=O)COc2ccc(Cl)cc2)C3)c1 (stereo partly drawn) the EC50 [3] was 87.6 µM (active), the EC50 [4] was > 120 µM (not active) and the EC50 [5] was > 120 µM (not active).

With COc1ccc(N2CCN(S(=O)(=O)c3c(C)nc4sccn4c3=O)CC2)cc1 the EC50 [6] was > 112 µM (not active) and the EC50 [7] was > 112 µM (not active).

For COc1cccc(/C=N/NC(=O)c2cc(-c3ccccn3)nc3ccccc23)c1O, the AC50 [11] was 1.8 µM (active).

In the case of O=C(Cn1cc(C(=O)C(F)(F)F)c2ccccc21)NCc1ccco1, the EC50 [6] is reported as > 112 µM (not active) and the EC50 [7] is reported as > 112 µM (not active).

For O=c1cnc2cncnc2n1Cc1ccccc1Cl, the AC50 [12] was 15.8 µM (inconclusive), the AC50 [10] was 20 µM (inconclusive) and the AC50 [9] was 20 µM (inconclusive).

In the case of COc1cccc(/C=N/Nc2nnc(C)n2N)c1OCc1ccccc1Cl, the EC50 [3] is reported as > 120 µM (not active), the EC50 [4] is reported as > 120 µM (not active) and the EC50 [5] is reported as > 120 µM (not active).

With Cc1cc(C)n(C(=O)CCCCCCCCC(=O)n2nc(C)cc2C)n1 the AC50 [12] was 15.8 µM (inconclusive) and the AC50 [9] was 0.251 µM (inconclusive).

With Cc1cc(/C=C2\C(=O)NC(=O)N(c3ccc(Cl)cc3)C2=O)c(C)n1C the EC50 [1] was 63.5 µM (active).

In the case of COc1cc(CNCc2cccs2)cc(Br)c1OC, the AC50 [9] is reported as 1.41 µM (inconclusive).

With CC(Oc1ccc(F)cc1)C(=O)Nc1ccccc1N1CCCCC1 (stereo not drawn) the EC50 [6] was 21 µM (active), the EC50 [13] was 10.3 µM (active) and the EC50 [14] was 19.9 µM (active). For the same compound, the EC50 [7] was 27.3 µM (active) and the EC50 [15] was 11.8 µM (active).

For COc1cccc(C(=O)Nc2ccc(-c3nnc(-c4ccco4)o3)cc2)c1, the AC50 [8] was 2.82 µM (inconclusive) and the AC50 [9] was 1.41 µM (inconclusive).

In the case of c1ccc(C(c2ccccc2)N2CC[C@@]3(CCCNC3)C2)cc1, the AC50 [9] is reported as 31.6 µM (inconclusive).

With COc1cccc(-c2nc(C[S+]([O-])CC(=O)NCCc3ccc(C)cc3)c(C)o2)c1 (stereo not drawn) the EC50 [6] was > 112 µM (not active) and the EC50 [7] was > 112 µM (not active).
